Data on 64 compounds can be found in a melting point compilation (Tetko et al.; mined from patent text by program, amines drawn as free bases though some values may be those of a salt).

For orientation: melting point means the temperature of the solid-liquid transition.

Structures are written as SMILES. Bounds are passed on as bounds.

`CC1(C)C=C(N2CCNCC2=O)c2cnccc2O1` displayed a melting point of 109 to 110 °C. Regarding `CCC(C)C(C)C(=O)Nc1ccc2c(C)cn3c(=O)c(C(=O)OCCNC(=O)c4cccnc4)cnc3c2c1` (centres undefined), the melting point lay in the range of 204 to 210 °C. In turn, `Cc1c(CO)ncnc1N1CCOCC1` showed a melting point of 66 to 68 °C.

In the case of `Cc1cc2c(-c3ccccc3Cl)c(NC(=O)Nc3ccc(Cl)cc3)c(=O)n(C)c2cc1C`, the melting point was in the range of 207 to 209 °C. Consider `CCN(c1ccc(Cl)cc1[N+](=O)[O-])S(=O)(=O)c1ccc(Cl)cc1`, for which the melting point fell in the range of 122 to 123 °C. As to `NS(=O)(=O)c1sc2ccccc2c1CCO`, the melting point fell in the range of 162 to 164 °C. In turn, `CCCCC1(CCCC)CS(=O)(=O)c2ccc(N(C)C)cc2C(c2ccc(OCC(=O)NCC(=O)O)cc2)C1O` (centres undefined) registered a melting point of 149 to 150 °C. In turn, `O=[N+]([O-])c1ccc(F)nc1Nc1ccc2c(c1)OCO2` gave a melting point of 161 to 162 °C.

`NS(=O)(=O)c1ccc(-c2cccc(-c3nc(-c4ccc(C(F)(F)F)cc4F)cc(C(F)(F)F)n3)c2)s1` yielded a melting point of 192 °C. On to `C=C1C=C(Oc2cc(C(=O)OC)ccc2OC)C1(F)F`, for which the melting point is 60 to 62 °C. As for `O=C(O)COc1ccccc1Cn1nc(-c2cccs2)c(Cc2cc3c(cc2Cl)OCO3)c1C(=O)O`, the figure is over 260 °C; as for `N#Cc1cccc2nc(N[C@@H]3CCc4ccccc43)ccc12`, 150 °C. Regarding `COc1ccc(CN(C)CCCOc2ccc(NC(=O)c3cccc4c(=O)c5cccc(C)c5[nH]c34)cc2)cc1OC`, the melting point came to 160 °C. `O=C(CCl)NCC1OCCO1` yielded a melting point of 61 to 63 °C. As for `CCCCN(c1nc(NCC(=O)OCC)nc(N(CCCC)C2CC(C)(C)NC(C)(C)C2)n1)C1CC(C)(C)NC(C)(C)C1`, the figure is 40 °C; as for `CCCCCC1(C)OCc2c1cnc(C)c2OCC(=O)O` (centres undefined), 211 °C; as for `COC(=O)COc1ccc(C)c2c1c1c(n2Cc2ccccc2)CCCC1C(N)=O` (centres undefined), 209 °C.

Consider `CC(=O)CCC(=O)C1=Cc2ccccc2C1`, for which the melting point was 85 °C.

On to `NC(=O)Cc1c[nH]c2cc(OCc3ccccc3)ccc12`, for which the melting point is 189 to 192 °C. Take `O=C(Nc1ccccn1)C(CC1CCCC1)c1ccc([N+](=O)[O-])cc1` (centres undefined): the melting point was in the range of 110 to 115 °C. `Cc1ccc(S(=O)(=O)N2CCCC2CO)cc1` (centres undefined) showed a melting point of 90 to 91 °C. Compound `Nc1nc2c(ncn2OC(CO)COCP(=O)(O)O)c(=O)[nH]1` (centres undefined) showed a melting point of over 300 °C. Compound `Fc1ccc2occ(N3CCN(C4CCN(c5ccc(F)c6cccnc56)CC4)CC3)c2c1` yielded a melting point of 187 to 189 °C.

In the case of `CC(C)c1ccc2c(=O)c(S(C)=O)cn(C)c2c1` (centres undefined), the melting point was 214 to 215 °C. On to `CC(C)c1cc(C(C)C)c(CC(=O)NS(=O)(=O)Oc2c(C(C)C)cc(S(N)(=O)=O)cc2C(C)C)c(C(C)C)c1`, for which the melting point is 164 to 166 °C. To `CCCC(Oc1ccc2c(-c3ccc(Cl)cc3)noc2c1)C(=O)O` (centres undefined) belongs 170 °C; to `Cc1ccc2c(=O)cc[nH]c2c1[N+](=O)[O-]`, over 250 °C; to `COc1cc2c(-c3ccncc3)c(C(=O)O)oc(=O)c2cc1OC`, over 250 °C. As for `O=C(O)c1cn(CCCO)c(=O)c2ccccc12`, the figure is 205 °C; as for `Nc1ccccc1Oc1ccc2c(c1)C(=O)NC2=O`, 212 °C.

Regarding `COCC(COC)(CN(C)CCP(C)(C)=S)SCc1ccccc1`, the melting point was determined as 74 °C.

As for `CN1CCN(c2ccc(I)nn2)CC1`, the melting point came to 149 °C.

`Cn1c2c(c3cc(F)ccc31)C(=O)CCC2`: the melting point stood at 158 °C. Consider `O=C1C2CCCN2c2ncccc2N1Cc1ccccc1` (centres undefined), for which the melting point is 222 to 225 °C. For the compound `CC(Br)C(=O)c1ccccc1NCC(=O)O` (centres undefined), the melting point was 144 to 147 °C. `CC(C)(CS(C)(=O)=O)NC(=O)c1c(I)cccc1C(=O)Nc1ccc(S(F)(F)(F)(F)F)cc1Cl` returned a melting point of 196 to 198 °C. `Cc1nc2c(cc1Cl)C(=O)N(C)CC(CCCl)O2` (centres undefined): the melting point was 65 to 69 °C. The compound `O=[N+]([O-])c1cc(Cl)cc2c1OC[C@H](CO)O2` displayed a melting point of 83 to 88 °C. `NC(=O)N1c2ccccc2C(Br)C(Br)c2ccccc21` (centres undefined): the melting point was found to be 144 °C. `O=c1[nH]c2c(cnn2-c2ccccc2)c2ccccc12` came in with a melting point of 280 °C. With `Oc1ccc2c(ccn2-c2ccnc(N[C@H]3CC[C@H](O)CC3)n2)c1`, the melting point fell in the range of 246 to 248 °C. `COc1cccc(Oc2c(NS(=O)(=O)c3ccc(C(C)(C)C)cc3)ncnc2OCCOc2ccncn2)c1` had a melting point of 149 to 150 °C. `O=C1c2ccc(-n3ncc4ccccc43)cc2CCN1CCN1CCCC1` gave a melting point of 185 to 186 °C. Compound `O=C(CCl)Nc1ccc2c(c1NC(=O)c1cccs1)C(=O)c1ccccc1C2=O` registered a melting point of 190 to 191 °C. `Cc1ccc2c(c1)C(=O)N1CCN=C1N2N1CCOCC1` came in with a melting point of 227 to 228 °C.

In turn, `C=CC[Si](C)(C)c1cccc(Cl)c1C(=O)NCC` displayed a melting point of 61 to 63 °C. To `Oc1cccc(CC2c3ccccc3CCc3ccccc32)c1` belongs 76.6 °C.

The compound `Nc1nc[nH]c(=O)c1O` returned a melting point of over 300 °C. In the case of `CC(=O)NCC1(N2CCN(C)CC2)CCCCC1`, the melting point was 110 to 111 °C.

`CSC(=S)NCc1ccc([N+](=O)[O-])cc1`: the melting point lay in the range of 106 to 107 °C. Turning to `O=c1[nH]c(=O)n(C2CC(OCc3cccc4ccccc34)C(CO)O2)cc1F` (centres undefined), the melting point is 159 to 160 °C. With `CS(=O)(=O)c1cc2[nH]c(=O)c(=O)n(C3CCCCC3)c2cc1-n1cccc1`, the melting point is over 280 °C. The compound `CC(Nc1nc(Oc2cccc3sc(N)nc23)cc(-c2ccc(C(F)(F)F)cc2)n1)c1ccc(F)cc1` (centres undefined) showed a melting point of 231 °C.

`Cc1cn(S(C)(=O)=O)c2c1C(=O)CC(c1cccs1)C2` (centres undefined) registered a melting point of 135 to 136 °C. `CC1(C)N=C(Oc2ccccn2)c2cc(F)ccc2O1` displayed a melting point of 114 °C.

As for `OC[C@@H](O)[C@@H](CO)OCc1ccccc1Cl`, the melting point lay in the range of 74 to 76 °C.

Regarding `FC(F)(F)c1ccccc1-c1nnc(Nc2cccc(SCc3ccccc3-c3ccccc3)c2)s1`, the melting point is 73 to 75 °C. `COC(=O)C1=C(C)NC(C)=C(C(=O)OC(C)(C)C)C1c1cccc(N)c1` (centres undefined): the melting point is 85 to 90 °C. Compound `NN(Cc1nccs1)C1CCCN(C(=O)c2ccc(Nc3nccc(Nc4ccc(F)cc4)n3)cc2)C1` (centres undefined) displayed a melting point of 160 to 165 °C. As for `Cc1ccc(N2CN(c3ccccc3)C3=NN=CC3=C2N)cc1`, the figure is 248 to 250 °C. As for `CCOC(=O)Cn1nc(-c2ccccc2O)nc1-c1ccccc1O`, the melting point fell in the range of 172 to 174 °C.

On to `O=C1c2ccccc2S(=O)(=O)N1CCCCOc1ccc(O)cc1`, for which the melting point lay in the range of 107 to 109 °C.

The compound `CC(C)c1ccccc1N1CCS/C1=N/N=C\c1ccc(-c2ncn(-c3ccc(OC(F)(F)F)cc3)n2)cc1` had a melting point of 193 to 196 °C. `CCC(CC)CNc1cccc(-c2ccnc3c(C(=O)c4cccs4)cnn23)c1` came in with a melting point of 192 to 194 °C.
